System: CN0375-F725-PDC KRAS spheroid viability
Test: Anticancer human tumor CN0375-F725-PDC patient-derived colon carcinoma cell line growth inhibition [KRAS2]
Settings: spheroids with HUVEC and MSC; for IC50: curve of first compound; for viability, T/C: stronger effect = lower value
Method in brief: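 Combination screen of spheroid viability in tumor-cell co-cultures with endothelial (HUVEC) and mesenchymal stem cell stroma. Each agent was tested in half-log dilutions, topping at clinical Cmax or at 10 microM without a known Cmax.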
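Note: spheroids exposed to agents for 7 days.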

In the case of `CC(=O)OC12COC1CC(O)C1(C)C(=O)C(O)C3=C(C)C(OC(=O)C(O)C(NC(=O)OC(C)(C)C)c4ccccc4)CC(O)(C(OC(=O)c4ccccc4)C21)C3(C)C` (stereo not given) + CC1OCC2(CCN(c3cnc(Sc4ccnc(N)c4Cl)c(N)n3)CC2)C1N, the IC50 (second compound 0.1 µM) is reported as greater than 3.16 µM, the IC50 (second compound 0.316 µM) is reported as greater than 3.16 µM and the IC50 (second compound 1 µM) is reported as greater than 3.16 µM. For the same molecule, the IC50 (second compound 3.16 µM) was greater than 3.16 µM, the IC50 (second compound 10 µM) was greater than 3.16 µM and the viability, T/C (second compound 0.1 µM, first compound 0.01 µM) was 93.5%. It also gave a viability, T/C (second compound 0.1 µM, first compound 0.0316 µM) of 93.2%, a viability, T/C (second compound 0.1 µM, first compound 0.1 µM) of 83.8% and a viability, T/C (second compound 0.1 µM, first compound 0.316 µM) of 79.1%. It also gave a viability, T/C (second compound 0.1 µM, first compound 1 µM) of 79.6%, a viability, T/C (second compound 0.1 µM, first compound 3.16 µM) of 71.5% and a viability, T/C (second compound 0.316 µM, first compound 0.01 µM) of 91.5%. For the same molecule, the viability, T/C (second compound 0.316 µM, first compound 0.0316 µM) was 88.4%, the viability, T/C (second compound 0.316 µM, first compound 0.1 µM) was 79.4% and the viability, T/C (second compound 0.316 µM, first compound 0.316 µM) was 74.7%. The viability, T/C (second compound 0.316 µM, first compound 1 µM) was 71.8%, the viability, T/C (second compound 0.316 µM, first compound 3.16 µM) was 71.8% and the viability, T/C (second compound 1 µM, first compound 0.01 µM) was 95.6%. For the same molecule, the viability, T/C (second compound 1 µM, first compound 0.0316 µM) was 102%, the viability, T/C (second compound 1 µM, first compound 0.1 µM) was 87.5% and the viability, T/C (second compound 1 µM, first compound 0.316 µM) was 83.8%. It also gave a viability, T/C (second compound 1 µM, first compound 1 µM) of 80.7%, a viability, T/C (second compound 1 µM, first compound 3.16 µM) of 76.7% and a viability, T/C (second compound 3.16 µM, first compound 0.01 µM) of 77.6%. For the same molecule, the viability, T/C (second compound 3.16 µM, first compound 0.0316 µM) was 74.8%, the viability, T/C (second compound 3.16 µM, first compound 0.1 µM) was 68% and the viability, T/C (second compound 3.16 µM, first compound 0.316 µM) was 64%. The viability, T/C (second compound 3.16 µM, first compound 1 µM) was 64.5%, the viability, T/C (second compound 3.16 µM, first compound 3.16 µM) was 58.6% and the viability, T/C (second compound 10 µM, first compound 0.01 µM) was 73.9%. The viability, T/C (second compound 10 µM, first compound 0.0316 µM) was 70.1%, the viability, T/C (second compound 10 µM, first compound 0.1 µM) was 67.2% and the viability, T/C (second compound 10 µM, first compound 0.316 µM) was 59.8%. The viability, T/C (second compound 10 µM, first compound 1 µM) was 57.2% and the viability, T/C (second compound 10 µM, first compound 3.16 µM) was 53.2%.
